Experimental data taken from US12538701B2, “Compound and organic light emitting device comprising the same” (LG Chem, Ltd., priority 2020, dated 2026).

Assay: Solubility experiment in cyclohexanone
Format: physicochemical
Details: normal temperature/pressure, whether 0.1 wt % or more was dissolved
Method: In order to confirm the solubility in the solvent used in the solution process of the compounds prepared in the Preparation Examples and the comparative compounds, each of them was dissolved in the solvent cyclohexanone (CHON) under normal temperature/pressure conditions, and it was confirmed whether 0.1 wt % or more was dissolved.

Row | SMILES | Solubility, Solvent CHON
1 | CC1(C)c2cc(-c3cc4ccccc4o3)ccc2-c2ccc(N(c3ccccc3)c3ccc4c5c6ccc7c(c6ccc5n(-c5ccccc5)c4c3)c3ccc(N(c4ccccc4)c4ccc5c(c4)C(C)(C)c4cc(-c6cc8ccccc8o6)ccc4-5)cc3n7-c3ccccc3)cc21 [Comparative Compound I, reference compound] | X (0.1 wt. % or more insoluble)
2 | Cc1cccc(N(c2ccc3c(ccc4c5c(ccc6c7ccc8cc(N(c9cccc(C)c9)c9cccc%10c9oc9ccccc9%10)ccc8c7n(-c7ccccc7)c65)n(-c5ccccc5)c34)c2)c2cccc3c2oc2ccccc23)c1 [Compound 1] | ◯ (0.1 wt. % or more soluble)
3 | Cc1cccc(N(c2ccc3c(ccc4c5cc6c7ccc8cc(N(c9cccc(C)c9)c9cccc%10c9oc9ccccc9%10)ccc8c7n(-c7ccccc7)c6cc5n(-c5ccccc5)c34)c2)c2cccc3c2oc2ccccc23)c1 [Compound 2] | ◯ (0.1 wt. % or more soluble)
4 | Cc1cccc(N(c2ccc3c(ccc4c5cc6c(cc5n(-c5ccccc5)c34)c3ccc4cc(N(c5cccc(C)c5)c5cccc7c5oc5ccccc57)ccc4c3n6-c3ccccc3)c2)c2cccc3c2oc2ccccc23)c1 [Compound 3] | ◯ (0.1 wt. % or more soluble)
5 | Cc1cccc(N(c2ccc3c(ccc4c5c6c7ccc8cc(N(c9cccc(C)c9)c9cccc%10c9oc9ccccc9%10)ccc8c7n(-c7ccccc7)c6ccc5n(-c5ccccc5)c34)c2)c2cccc3c2oc2ccccc23)c1 [Compound 4] | ◯ (0.1 wt. % or more soluble)
6 | Cc1cccc(N(c2ccc3c(ccc4c5ccc6c7ccc8cc(N(c9cccc(C)c9)c9cccc%10c9oc9ccccc9%10)ccc8c7n(-c7ccccc7)c6c5n(-c5ccccc5)c34)c2)c2cccc3c2oc2ccccc23)c1 [Compound 5] | ◯ (0.1 wt. % or more soluble)
7 | c1ccc(N(c2ccc3cc(-c4cc5ccccc5o4)ccc3c2)c2ccc3c(ccc4c5cc6c7ccc8cc(N(c9ccccc9)c9ccc%10cc(-c%11cc%12ccccc%12o%11)ccc%10c9)ccc8c7n(-c7ccccc7)c6cc5n(-c5ccccc5)c34)c2)cc1 [Compound 12] | ◯ (0.1 wt. % or more soluble)
8 | c1ccc(N(c2ccc3cc(-c4cc5ccccc5o4)ccc3c2)c2ccc3c(ccc4c5cc6c(cc5n(-c5ccccc5)c34)c3ccc4cc(N(c5ccccc5)c5ccc7cc(-c8cc9ccccc9o8)ccc7c5)ccc4c3n6-c3ccccc3)c2)cc1 [Compound 13] | ◯ (0.1 wt. % or more soluble)
9 | CC1(C)c2ccccc2-c2ccc(-n3c4cc5c6ccc7cc(N(c8ccccc8)c8ccc9cc(-c%10cc%11ccccc%11o%10)ccc9c8)ccc7c6n(-c6ccc7c(c6)C(C)(C)c6ccccc6-7)c5cc4c4ccc5cc(N(c6ccccc6)c6ccc7cc(-c8cc9ccccc9o8)ccc7c6)ccc5c43)cc21 [Compound 16] | ◯ (0.1 wt. % or more soluble)
10 | [2H]c1c([2H])c([2H])c(-n2c3cc4c5ccc6cc(N(c7ccccc7)c7ccc8cc(-c9cc%10ccccc%10o9)ccc8c7)ccc6c5n(-c5c([2H])c([2H])c([2H])c([2H])c5[2H])c4cc3c3ccc4cc(N(c5ccccc5)c5ccc6cc(-c7cc8ccccc8o7)ccc6c5)ccc4c32)c([2H])c1[2H] [Compound 17] | ◯ (0.1 wt. % or more soluble)
11 | CC(C)(C)c1ccc(N(c2ccc3cc(-c4cc5ccccc5o4)ccc3c2)c2ccc3c(ccc4c5cc6c(cc5n(-c5ccc(C(C)(C)C)cc5)c34)c3ccc4cc(N(c5ccc(C(C)(C)C)cc5)c5ccc7cc(-c8cc9ccccc9o8)ccc7c5)ccc4c3n6-c3ccc(C(C)(C)C)cc3)c2)cc1 [Compound 18] | ◯ (0.1 wt. % or more soluble)

The next lines start with the values.

Row | Solubility, Solvent CHON | SMILES
12 | ◯ (0.1 wt. % or more soluble) | c1ccc(-n2c3ccccc3c3cc(-c4ccc(N(c5ccc6ccccc6c5)c5ccc6c(ccc7c8c(ccc9c%10ccc%11cc(N(c%12ccc(-c%13ccc%14c(c%13)c%13ccccc%13n%14-c%13ccccc%13)cc%12)c%12ccc%13ccccc%13c%12)ccc%11c%10n(-c%10ccccc%10)c98)n(-c8ccccc8)c67)c5)cc4)ccc32)cc1 [Compound 6]
13 | ◯ (0.1 wt. % or more soluble) | c1ccc(-n2c3ccccc3c3cc(-c4ccc(N(c5ccc6ccccc6c5)c5ccc6c(ccc7c8cc9c%10ccc%11cc(N(c%12ccc(-c%13ccc%14c(c%13)c%13ccccc%13n%14-c%13ccccc%13)cc%12)c%12ccc%13ccccc%13c%12)ccc%11c%10n(-c%10ccccc%10)c9cc8n(-c8ccccc8)c67)c5)cc4)ccc32)cc1 [Compound 7]
14 | ◯ (0.1 wt. % or more soluble) | c1ccc(-n2c3ccccc3c3cc(-c4ccc(N(c5ccc6ccccc6c5)c5ccc6c(ccc7c8cc9c(cc8n(-c8ccccc8)c67)c6ccc7cc(N(c8ccc(-c%10ccc%11c(c%10)c%10ccccc%10n%11-c%10ccccc%10)cc8)c8ccc%10ccccc%10c8)ccc7c6n9-c6ccccc6)c5)cc4)ccc32)cc1 [Compound 8]
15 | ◯ (0.1 wt. % or more soluble) | c1ccc(-n2c3ccccc3c3cc(-c4ccc(N(c5ccc6ccccc6c5)c5ccc6c(ccc7c8c9c%10ccc%11cc(N(c%12ccc(-c%13ccc%14c(c%13)c%13ccccc%13n%14-c%13ccccc%13)cc%12)c%12ccc%13ccccc%13c%12)ccc%11c%10n(-c%10ccccc%10)c9ccc8n(-c8ccccc8)c67)c5)cc4)ccc32)cc1 [Compound 9]
16 | ◯ (0.1 wt. % or more soluble) | c1ccc(-n2c3ccccc3c3cc(-c4ccc(N(c5ccc6ccccc6c5)c5ccc6c(ccc7c8ccc9c%10ccc%11cc(N(c%12ccc(-c%13ccc%14c(c%13)c%13ccccc%13n%14-c%13ccccc%13)cc%12)c%12ccc%13ccccc%13c%12)ccc%11c%10n(-c%10ccccc%10)c9c8n(-c8ccccc8)c67)c5)cc4)ccc32)cc1 [Compound 10]
17 | ◯ (0.1 wt. % or more soluble) | c1ccc(N(c2ccc3cc(-c4cc5ccccc5o4)ccc3c2)c2ccc3c(ccc4c5c(ccc6c7ccc8cc(N(c9ccccc9)c9ccc%10cc(-c%11cc%12ccccc%12o%11)ccc%10c9)ccc8c7n(-c7ccccc7)c65)n(-c5ccccc5)c34)c2)cc1 [Compound 11]
18 | ◯ (0.1 wt. % or more soluble) | c1ccc(N(c2ccc3cc(-c4cc5ccccc5o4)ccc3c2)c2ccc3c(ccc4c5c6c7ccc8cc(N(c9ccccc9)c9ccc%10cc(-c%11cc%12ccccc%12o%11)ccc%10c9)ccc8c7n(-c7ccccc7)c6ccc5n(-c5ccccc5)c34)c2)cc1 [Compound 14]
19 | ◯ (0.1 wt. % or more soluble) | c1ccc(N(c2ccc3cc(-c4cc5ccccc5o4)ccc3c2)c2ccc3c(ccc4c5ccc6c7ccc8cc(N(c9ccccc9)c9ccc%10cc(-c%11cc%12ccccc%12o%11)ccc%10c9)ccc8c7n(-c7ccccc7)c6c5n(-c5ccccc5)c34)c2)cc1 [Compound 15]
